Test results as given in patent US20260285866A1, “MODULATORS OF TRPML, THEIR COMPOSITIONS AND METHODS OF USE” (Caraway Therapeutics, Inc., priority 2024, published 2026).

Columns and labels:
Human TRPML1 = Human TRPML1 (Homo sapiens, UniProt Q9GZU1, L15A/L16A/L577A/L578A); assay: Fluorescent TRPML1 assay (Fluo4-AM, HEK-293 Trex cells expressing hTRPML1); format: cell-based; details: fluorescent calcium assay, doxycycline-induced hTRPML1
Procedure: Example 27. Fluorescent TRPML Assays
(§1) HEK-293 Trex cells were stably transfected with a construct consisting of the human coding sequence for TRPML1 cloned into the tet-inducible plasmid pCDNA5 T/O. Mutations were introduced into the TRPML1 sequence to facilitate expression on the cell surface (Silvia Vergarajauregui, Rosa Puertollano Traffic. 2006 March; 7(3): 337-353). Briefly, the cells are cultured in 150 mm round tissue culture dishes containing 20 mL of media. The day before the assay the cells are rinsed with DPBS-Ca-Mg and then treated briefly with Trypsin-EDTA. The Trypsin-EDTA is diluted with growth media, and cells are counted. 38×10^6 cells are re-plated into 150 mm round tissue culture dishes in media containing 0.5 μg/mL doxycycline to induce expression of hTRPML1.
(§2) The day of the experiment cells are lifted from the plates as above and collected by centrifugation. The cells are then suspended in dye loading buffer consisting of Ringer's solution supplemented with 0.1% Pluronic Acid and 1 micromolar Fluo4-AM dye. Cells are loaded for ~60 minutes in the dark with occasional mixing. The cells are collected by centrifugation, the loading media aspirated, and the cells resuspended in 25 mL Ringer's solution and incubated ~60 minutes in the dark. The cells are again collected by centrifugation, rinsed in Ringer's Solution and resuspended to 0.2×10^6 cells/mL in modified Ringer's solution containing 10 mM calcium.
(§3) Compounds are dissolved to a concentration of 10 millimolar with DMSO. Compound plates are created by dispensing compounds into 384 well black wall clear bottom plates (Greiner 781091). Positive and negative controls are included on each plate. Typically, different amounts of each compound are tested ranging from 100 nanoMoles (20 micromolar final concentration) decreasing in half-log steps to 31 picoMoles (6 nanomolar final concentration). Each concentration is typically tested in triplicate.
(§4) 50 microliters of dye-loaded cells are dispensed into each well of the compound assay plate created above. The fluorescence in each well is then determined with an excitation wavelength of 480 nm and an emission wavelength of 540 nm using either a Molecular Devices SpectraMax multimode plate reader or a Hamamatsu FDSS/uCell plate imager.
(§5) The resulting fluorescence for each well is exported as an ascii file and loaded into our LIMS for analysis. The percent activity of each compound at each concentration is determined by comparison to the positive and negative control wells included in each plate.
(§6) EC50 values were calculated using a non-linear regression of Prism. In the table, “A” indicates an EC50 of less than 100 nM, “B” indicates an EC50 range from 100 nM to 500 nM: “C” indicates an EC50 range from 500 nM to 2 μM; and “D” indicates an EC50 greater than 2 μM.

Human TRPML3 = target: T1, Human TRPML3 (Homo sapiens, UniProt Q8TDD5); assay: Fluorescent TRPML3 assay (as for TRPML1); format: cell-based; details: fluorescent calcium assay as for TRPML1, TRPML3 subtype
T1 construct: expressed in transfected cells
T1 sequence (Q8TDD5 1-553): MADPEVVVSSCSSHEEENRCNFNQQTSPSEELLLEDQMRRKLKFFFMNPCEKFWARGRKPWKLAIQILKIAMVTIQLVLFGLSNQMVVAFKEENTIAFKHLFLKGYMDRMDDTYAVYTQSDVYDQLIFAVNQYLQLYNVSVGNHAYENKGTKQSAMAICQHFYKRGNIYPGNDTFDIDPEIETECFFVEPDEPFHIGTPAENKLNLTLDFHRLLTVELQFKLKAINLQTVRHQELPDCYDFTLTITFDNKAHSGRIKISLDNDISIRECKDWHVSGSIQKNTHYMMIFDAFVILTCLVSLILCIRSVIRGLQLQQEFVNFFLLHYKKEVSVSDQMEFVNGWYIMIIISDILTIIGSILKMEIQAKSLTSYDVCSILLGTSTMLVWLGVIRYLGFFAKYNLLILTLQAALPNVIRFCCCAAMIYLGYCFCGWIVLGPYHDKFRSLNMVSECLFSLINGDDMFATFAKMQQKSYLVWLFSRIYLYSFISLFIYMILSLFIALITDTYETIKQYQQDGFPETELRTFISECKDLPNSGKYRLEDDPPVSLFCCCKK
Procedure: as §1, §2, §3, §4, §5
Assays for TRPML2 and TRPML3 were performed as above for TRPML1, by substituting the appropriate TRPML2 or TRPML3 subtype for the TRPML1.
as §6

Chain of Human TRPML1 (Q9GZU1 whole entry L15A/L16A/L577A/L578A): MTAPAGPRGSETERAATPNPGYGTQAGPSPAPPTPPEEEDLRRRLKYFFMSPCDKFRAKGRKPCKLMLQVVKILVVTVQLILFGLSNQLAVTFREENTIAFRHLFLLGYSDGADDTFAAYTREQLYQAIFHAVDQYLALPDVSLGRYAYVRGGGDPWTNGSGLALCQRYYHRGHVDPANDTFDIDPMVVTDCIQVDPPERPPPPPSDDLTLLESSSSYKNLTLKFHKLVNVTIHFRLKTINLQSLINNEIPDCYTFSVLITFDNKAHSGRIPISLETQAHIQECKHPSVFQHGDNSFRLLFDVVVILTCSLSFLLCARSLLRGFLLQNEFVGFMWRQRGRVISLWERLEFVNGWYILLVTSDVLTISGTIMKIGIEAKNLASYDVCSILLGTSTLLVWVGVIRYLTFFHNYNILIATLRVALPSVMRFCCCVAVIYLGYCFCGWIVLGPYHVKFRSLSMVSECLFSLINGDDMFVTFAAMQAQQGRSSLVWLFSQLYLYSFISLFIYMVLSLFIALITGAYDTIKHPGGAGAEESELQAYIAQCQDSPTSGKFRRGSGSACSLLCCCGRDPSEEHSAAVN

| Structure (SMILES) | EC50 (Human TRPML1) [nM] | EC50 (Human TRPML3) [nM] |
| --- | --- | --- |
| C[C@@H]1CN(c2ncnc3c2c(-c2cnco2)cn3-c2cc(C#N)ccn2)[C@@H](C)CN1C(=O)C(C)(C)O [Compound 127, 2-(4-((2S,5R)-4-(2-hydroxy-2-methylpropanoyl)-2,5-dimethylpiperazin-1-yl)-5-(oxazol-5-yl)-7H-pyrrolo[2,3-d]pyrimidin-7-yl)isonicotinonitrile] | 100 to 500 | > 2000 |
| C[C@H]1CN(C(=O)C2(O)CCC2)CCN1c1ncnc2c1c(-c1ccccc1F)cn2-c1cc(C#N)ccn1 [Compound 117, (S)-2-(5-(2-fluorophenyl)-4-(4-(1-hydroxycyclobutane-1-carbonyl)-2-methylpiperazin-1-yl)-7H-pyrrolo[2,3-d]pyrimidin-7-yl)isonicotinonitrile] | 500 to 2000 | 500 to 2000 |
| C[C@@H]1CN(c2ncnc3c2c(-c2ccncc2)cn3-c2cccc(Cl)c2)[C@@H](C)CN1C(=O)C(C)(C)O [Compound 137, 1-((2R,5S)-4-(7-(3-chlorophenyl)-5-(pyridin-4-yl)-7H-pyrrolo[2,3-d]pyrimidin-4-yl)-2,5-dimethylpiperazin-1-yl)-2-hydroxy-2-methylpropan-1-one] | 500 to 2000 | > 2000 |
| C[C@@H]1CN(c2ncnc3c2c(-n2ccnc2)cn3-c2cc(C#N)ccn2)[C@@H](C)CN1C(=O)C(C)(C)O [Compound 132, 2-(4-((2S,5R)-4-(2-hydroxy-2-methylpropanoyl)-2,5-dimethylpiperazin-1-yl)-5-(1H-imidazol-1-yl)-7H-pyrrolo[2,3-d]pyrimidin-7-yl)isonicotinonitrile] | > 2000 | > 2000 |
| C[C@@H]1CN(c2ncnc3c2c(-c2cocn2)cn3-c2cc(C#N)ccn2)[C@@H](C)CN1C(=O)C(C)(C)O [Compound 126, 2-(4-((2S,5R)-4-(2-hydroxy-2-methylpropanoyl)-2,5-dimethylpiperazin-1-yl)-5-(oxazol-4-yl)-7H-pyrrolo[2,3-d]pyrimidin-7-yl)isonicotinonitrile] | 500 to 2000 | > 2000 |
| CC(C)(O)C(=O)N1CCN(c2ncnc3c2c(-c2ccccc2)cn3-c2cc(C#N)ccn2)[C@@H](C2CC2)C1 [Compound 113] | 500 to 2000 | 500 to 2000 |
| C[C@@H]1CN(c2ncnc3c2c(C2CC2)cn3-c2cc(C#N)ccn2)[C@@H](C)CN1C(=O)CC(C)(C)O [Compound 160, 2-(5-cyclopropyl-4-((2S,5R)-4-(3-hydroxy-3-methylbutanoyl)-2,5-dimethylpiperazin-1-yl)-7H-pyrrolo[2,3-d]pyrimidin-7-yl)isonicotinonitrile] | 500 to 2000 | 500 to 2000 |
| C[C@@H]1CN(c2ncnc3c2c(-c2ccccc2F)cn3-c2cc(C#N)ccn2)[C@@H](C)CN1C(=O)C(C)(O)CO (stereo partly drawn) [Compound 167, 2-(4-((2S,5R)-4-(2,3-dihydroxy-2-methylpropanoyl)-2,5-dimethylpiperazin-1-yl)-5-(2-fluorophenyl)-7H-pyrrolo[2,3-d]pyrimidin-7-yl)isonicotinonitrile] | 100 to 500 | 500 to 2000 |
| C[C@H]1CN(C(=O)C(C)(C)O)[C@H](CO)CN1c1ncnc2c1c(-c1ccccc1F)cn2-c1cc(C#N)ccn1 [Compound 168, 2-(5-(2-fluorophenyl)-4-((2S,5S)-4-(2-hydroxy-2-methylpropanoyl)-5-(hydroxymethyl)-2-methylpiperazin-1-yl)-7H-pyrrolo[2,3-d]pyrimidin-7-yl)isonicotinonitrile] | 500 to 2000 | > 2000 |
| C[C@@H]1CN(c2ncnc3c2c(-c2ccno2)cn3-c2cc(C#N)ccn2)[C@@H](C)CN1C(=O)C(C)(C)O [Compound 152] | 500 to 2000 | > 2000 |
| C[C@@H]1CN(c2ncnc3c2c(-c2ccns2)cn3-c2cc(C#N)ccn2)[C@@H](C)CN1C(=O)C(C)(C)O [Compound 153, 2-(4-((2S,5R)-4-(2-hydroxy-2-methylpropanoyl)-2,5-dimethylpiperazin-1-yl)-5-(isothiazol-5-yl)-7H-pyrrolo[2,3-d]pyrimidin-7-yl)isonicotinonitrile] | 500 to 2000 | 500 to 2000 |
| C[C@@H]1CN(c2ncnc3c2c(-c2ncco2)cn3-c2cc(C#N)ccn2)[C@@H](C)CN1C(=O)C(C)(C)O [Compound 134, 2-(4-((2S,5R)-4-(2-hydroxy-2-methylpropanoyl)-2,5-dimethylpiperazin-1-yl)-5-(oxazol-2-yl)-7H-pyrrolo[2,3-d]pyrimidin-7-yl)isonicotinonitrile] | 500 to 2000 | > 2000 |
| C[C@@H]1CN(c2ncnc3c2c(-c2cncnc2)cn3-c2cc(C#N)ccn2)[C@@H](C)CN1C(=O)C(C)(C)O [Compound 116, 2-(4-((2S,5R)-4-(2-hydroxy-2-methylpropanoyl)-2,5-dimethylpiperazin-1-yl)-5-(pyrimidin-5-yl)-7H-pyrrolo[2,3-d]pyrimidin-7-yl)isonicotinonitrile] | > 2000 | > 2000 |

The next lines start with the values.

| EC50 (Human TRPML1) [nM] | EC50 (Human TRPML3) [nM] | Structure (SMILES) |
| --- | --- | --- |
| < 100 | 500 to 2000 | C[C@@H]1CN(c2ncnc3c2c(-c2ccccc2)cn3-c2cc(C#N)ccn2)[C@@H](C)CN1C(=O)C(C)(C)O [Compound 101, 2-(4-((2S,5R)-4-(2-hydroxy-2-methylpropanoyl)-2,5-dimethylpiperazin-1-yl)-5-phenyl-7H-pyrrolo[2,3-d]pyrimidin-7-yl)isonicotinonitrile] |
| 500 to 2000 | > 2000 | C[C@H]1CN(c2ncnc3c2c(-c2ccccc2F)cn3-c2cc(C#N)ccn2)[C@@H](C)CN1C(=O)C(C)(C)O [Compound 169, 2-(5-(2-fluorophenyl)-4-((2S,5S)-4-(2-hydroxy-2-methylpropanoyl)-2,5-dimethylpiperazin-1-yl)-7H-pyrrolo[2,3-d]pyrimidin-7-yl)isonicotinonitrile] |
| < 100 | 500 to 2000 | C[C@@H]1CN(c2ncnc3c2c(-c2ccccc2)cn3-c2cc(C#N)ccn2)[C@@H](C)CN1C(=O)C1(O)CCC1 [Compound 109, 2-(4-((2S,5R)-4-(1-hydroxycyclobutane-1-carbonyl)-2,5-dimethylpiperazin-1-yl)-5-phenyl-7H-pyrrolo[2,3-d]pyrimidin-7-yl)isonicotinonitrile] |
| 500 to 2000 | > 2000 | C[C@@H]1CN(c2ncnc3c2c(-c2ccccc2)cn3-c2cc(C#N)ccn2)[C@@H](C)CN1C(=O)C1(O)CN(C)C1 [Compound 130, 2-(4-((2S,5R)-4-(3-hydroxy-1-methylazetidine-3-carbonyl)-2,5-dimethylpiperazin-1-yl)-5-phenyl-7H-pyrrolo[2,3-d]pyrimidin-7-yl)isonicotinonitrile] |
| 100 to 500 | > 2000 | C[C@@H]1CN(c2ncnc3c2c(-c2ccccc2)cn3-c2cc(F)ccn2)[C@@H](C)CN1C(=O)C(C)(C)O [Compound 106, 1-((2R,5S)-4-(7-(4-fluoropyridin-2-yl)-5-phenyl-7H-pyrrolo[2,3-d]pyrimidin-4-yl)-2,5-dimethylpiperazin-1-yl)-2-hydroxy-2-methylpropan-1-one] |
| 500 to 2000 | > 2000 | C[C@@H]1CN(c2ncnc3c2c(-c2ccncc2)cn3-c2cc(C#N)ccn2)[C@@H](C)CN1C(=O)C1(O)CC1 [Compound 149, 2-(4-((2S,5R)-4-(1-hydroxycyclopropane-1-carbonyl)-2,5-dimethylpiperazin-1-yl)-5-(pyridin-4-yl)-7H-pyrrolo[2,3-d]pyrimidin-7-yl)isonicotinonitrile] |
